# Measurements: ChEMBL document CHEMBL6087427, “Discovery of novel cyclopentane carboxylic acids as potent and selective inhibitors of NaV1.7” (Bioorg Med Chem Lett, 2025)
# Experiments:
# [1] = target: T1, Sodium channel protein type 9 subunit alpha (Homo sapiens, UniProt Q15858); assay: Displacement of [3H]GX-545 from Nav1.7 VSD4 (unknown origin)
# Target sequence in this assay (Q15858 whole entry): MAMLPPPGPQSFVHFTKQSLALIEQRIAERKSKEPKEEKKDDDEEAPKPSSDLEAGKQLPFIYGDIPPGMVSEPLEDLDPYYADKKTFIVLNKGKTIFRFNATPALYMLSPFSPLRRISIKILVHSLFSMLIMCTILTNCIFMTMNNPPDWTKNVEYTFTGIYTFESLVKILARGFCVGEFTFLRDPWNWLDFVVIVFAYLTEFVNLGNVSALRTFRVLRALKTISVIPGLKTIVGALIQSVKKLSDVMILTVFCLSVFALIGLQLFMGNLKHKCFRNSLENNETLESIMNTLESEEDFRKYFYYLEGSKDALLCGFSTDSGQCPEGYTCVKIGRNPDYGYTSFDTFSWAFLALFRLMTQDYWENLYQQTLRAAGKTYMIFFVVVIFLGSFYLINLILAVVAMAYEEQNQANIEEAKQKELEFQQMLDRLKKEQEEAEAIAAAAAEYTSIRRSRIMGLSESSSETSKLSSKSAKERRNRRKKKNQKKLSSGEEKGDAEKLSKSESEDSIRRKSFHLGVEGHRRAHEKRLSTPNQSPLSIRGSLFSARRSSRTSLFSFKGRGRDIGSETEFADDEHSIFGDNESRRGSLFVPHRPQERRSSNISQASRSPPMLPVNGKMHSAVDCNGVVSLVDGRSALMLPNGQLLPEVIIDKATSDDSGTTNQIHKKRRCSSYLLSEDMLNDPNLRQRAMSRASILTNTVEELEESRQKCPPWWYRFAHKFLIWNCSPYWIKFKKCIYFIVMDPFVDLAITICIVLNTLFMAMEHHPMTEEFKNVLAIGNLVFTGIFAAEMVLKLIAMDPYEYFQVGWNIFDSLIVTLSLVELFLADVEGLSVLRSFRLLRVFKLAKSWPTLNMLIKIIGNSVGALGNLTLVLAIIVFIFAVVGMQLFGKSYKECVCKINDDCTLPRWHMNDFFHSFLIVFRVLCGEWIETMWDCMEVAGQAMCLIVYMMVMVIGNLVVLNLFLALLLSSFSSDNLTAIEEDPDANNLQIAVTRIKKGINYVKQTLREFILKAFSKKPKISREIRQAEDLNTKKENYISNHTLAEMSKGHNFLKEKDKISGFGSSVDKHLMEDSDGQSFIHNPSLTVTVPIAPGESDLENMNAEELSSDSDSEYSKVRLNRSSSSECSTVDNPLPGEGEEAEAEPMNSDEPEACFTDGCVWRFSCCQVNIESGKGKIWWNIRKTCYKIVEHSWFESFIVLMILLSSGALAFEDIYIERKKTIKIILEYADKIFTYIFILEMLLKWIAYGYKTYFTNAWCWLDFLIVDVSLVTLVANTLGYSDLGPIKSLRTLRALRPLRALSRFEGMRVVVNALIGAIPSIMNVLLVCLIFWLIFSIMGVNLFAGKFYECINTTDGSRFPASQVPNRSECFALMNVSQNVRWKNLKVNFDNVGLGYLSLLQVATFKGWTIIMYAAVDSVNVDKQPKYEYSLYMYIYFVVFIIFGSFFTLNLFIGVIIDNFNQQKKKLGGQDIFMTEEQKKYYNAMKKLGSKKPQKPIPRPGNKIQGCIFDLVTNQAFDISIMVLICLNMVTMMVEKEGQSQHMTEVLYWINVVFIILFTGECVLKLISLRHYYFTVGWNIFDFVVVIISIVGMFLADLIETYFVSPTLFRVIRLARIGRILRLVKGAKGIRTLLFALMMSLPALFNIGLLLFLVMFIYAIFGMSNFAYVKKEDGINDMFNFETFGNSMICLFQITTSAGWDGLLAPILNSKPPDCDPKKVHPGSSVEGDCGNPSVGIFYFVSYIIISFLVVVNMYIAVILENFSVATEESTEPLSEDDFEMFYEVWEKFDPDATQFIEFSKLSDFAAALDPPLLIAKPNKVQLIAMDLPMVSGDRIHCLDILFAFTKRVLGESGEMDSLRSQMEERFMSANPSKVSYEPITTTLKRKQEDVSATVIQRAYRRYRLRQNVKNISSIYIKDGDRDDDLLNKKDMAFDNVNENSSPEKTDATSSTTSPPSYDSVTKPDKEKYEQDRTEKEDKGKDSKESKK
# [2] = Metabolic stability in human liver microsomes assessed as hepatic clearance; assay type: ADME, Microsome
# [3] = target: Sodium channel protein type 5 subunit alpha (Homo sapiens, UniProt Q14524); assay: Inhibition of human Nav1.5 by patch clamp electrophysiology
# [4] = target: T1, Sodium channel protein type 9 subunit alpha; assay: Inhibition of human Nav1.7 by sodium flux assay
# Target sequence in this assay (Q15858 whole entry): as above
# [5] = AUC in mouse at 3 mg/kg, po; assay type: ADME, organism-based; details: in vivo
# [6] = target: T1, Sodium channel protein type 9 subunit alpha; assay: Inhibition of human Nav1.7 by patch clamp electrophysiology
# Target sequence in this assay (Q15858 whole entry): as above
# [7] = target: T1, Sodium channel protein type 9 subunit alpha; assay: Inhibition of human Nav1.7 assessed as fold shift in IC50 in presence of BSA by sodium flux assay
# Target sequence in this assay (Q15858 whole entry, looked up): as the sequence (Q15858 whole entry) above
# [8] = Metabolic stability in mouse liver microsomes assessed as hepatic clearance; assay type: ADME, Microsome
# [9] = target: Cytochrome P450 3A4 (Homo sapiens, UniProt P08684); assay: Inhibition of CYP3A4 (unknown origin); assay type: ADME
# [10] = Plasma protein binding in human; assay type: ADME, cell-free; details: read-out: PPB
# [11] = test system: Mus musculus; assay: Analgesic activity in aconitine-induced nociception in IEM transgenic FVB mouse model assessed as inhibition of nociceptive behaviour at 3 to 100 mg/kg, po pretreated for 2 hrs followed by aconitine administration measured for 30 mins post-aconitine dose; assay type: functional, organism-based
# [12] = test system: Mus musculus; assay: Analgesic activity in aconitine-induced nociception in IEM transgenic FVB mouse model assessed as reduction in pain response at 3 mg/kg, po pretreated for 2 hrs followed by aconitine administration measured for 30 mins post-aconitine dose relative to control; assay type: functional; parameters: scale not given: the % may be the effect or the level left; details: time 2.5 hrs
# [13] = test system: Mus musculus; assay: Analgesic activity in aconitine-induced nociception in IEM transgenic FVB mouse model assessed as reduction in pain response at 10 mg/kg, po pretreated for 2 hrs followed by aconitine administration measured for 30 mins post-aconitine dose relative to control; assay type: functional; parameters: scale not given: the % may be the effect or the level left; details: time 2.5 hrs
# [14] = target: Sodium channel protein type 1 subunit alpha (Homo sapiens, UniProt P35498); assay: Inhibition of human Nav1.1 by patch clamp electrophysiology
# [15] = Apparent permeability across apical to basolateral side in MDCK cells; assay type: ADME, cell-based, Canis lupus familiaris; details: dog
# [16] = target: Cytochrome P450 2D6 (Homo sapiens, UniProt P10635); assay: Inhibition of CYP2D6 (unknown origin); assay type: ADME
# [17] = target: Cytochrome P450 2C19 (Homo sapiens, UniProt P33261); assay: Inhibition of CYP2C19 (unknown origin); assay type: ADME
# [18] = test system: Mus musculus; assay: Analgesic activity in aconitine-induced nociception in IEM transgenic FVB mouse model assessed as reduction in pain response at 30 mg/kg, po pretreated for 2 hrs followed by aconitine administration measured for 30 mins post-aconitine dose relative to control; assay type: functional; parameters: scale not given: the % may be the effect or the level left; details: time 2.5 hrs
# [19] = Half life in mouse at 1 mg/kg, iv; assay type: ADME, organism-based; details: in vivo
# [20] = test system: BCRP; assay: Efflux ratio in MDCK-BCRP cells; assay type: ADME, cell-based, Canis lupus familiaris; details: dog
# [21] = Drug concentration in plasma of aconitine-induced nociception in IEM transgenic FVB mouse model at 30 mg/kg, po pretreated for 2 hrs followed by aconitine administration measured for 30 mins post-aconitine dose; assay type: ADME, organism-based
# [22] = Drug concentration in plasma of aconitine-induced nociception in IEM transgenic FVB mouse model at 3 mg/kg, po pretreated for 2 hrs followed by aconitine administration measured for 30 mins post-aconitine dose; assay type: ADME, organism-based
# [23] = Plasma protein binding in mouse; assay type: ADME, cell-free; details: read-out: PPB
# [24] = target: Cytochrome P450 2C9 (Homo sapiens, UniProt P11712); assay: Inhibition of CYP2C9 (unknown origin); assay type: ADME
# [25] = test system: Mus musculus; assay: Analgesic activity in aconitine-induced nociception in IEM transgenic FVB mouse model assessed as reduction in pain response at 100 mg/kg, po pretreated for 2 hrs followed by aconitine administration measured for 30 mins post-aconitine dose relative to control; assay type: functional; parameters: scale not given: the % may be the effect or the level left; details: time 2.5 hrs
# [26] = Kinetic solubility of compound; assay type: physicochemical; details: read-out: Kinetic_solubility
# [27] = Metabolic stability in mouse hepatocytes assessed as hepatic clearance; assay type: ADME, cell-based, Hepatocyte
# [28] = Drug concentration in plasma of aconitine-induced nociception in IEM transgenic FVB mouse model at 10 mg/kg, po pretreated for 2 hrs followed by aconitine administration measured for 30 mins post-aconitine dose; assay type: ADME, organism-based
# [29] = test system: MDR1 (P-gp); assay: Efflux ratio in MDCK-MDR1 cells; assay type: ADME, cell-based, Canis lupus familiaris; details: dog
# [30] = target: Sodium channel protein type 8 subunit alpha (Homo sapiens, UniProt Q9UQD0); assay: Inhibition of human Nav1.6 by patch clamp electrophysiology
# [31] = target: Sodium channel protein type 2 subunit alpha (Homo sapiens, UniProt Q99250); assay: Inhibition of human Nav1.2 by patch clamp electrophysiology
# [32] = Metabolic stability in human hepatocytes assessed as hepatic clearance; assay type: ADME, cell-based, Hepatocyte
# [33] = Ratio of drug concentration in brain to plasma of aconitine-induced nociception in IEM transgenic FVB mouse model at EC50 pretreated orally for 2 hrs followed by aconitine administration measured for 30 mins post-aconitine dose; assay type: ADME; details: route po, read-out: BPR
# [34] = Cmax in mouse at 3 mg/kg, po; assay type: ADME, organism-based; details: in vivo
# [35] = Drug concentration in brain of aconitine-induced nociception in IEM transgenic FVB mouse model at EC50 pretreated orally for 2 hrs followed by aconitine administration measured for 30 mins post-aconitine dose; assay type: ADME, tissue-based; details: route po, read-out: Ct
# [36] = Half life in mouse at 3 mg/kg, po; assay type: ADME, organism-based; details: in vivo
# [37] = Drug concentration in plasma of aconitine-induced nociception in IEM transgenic FVB mouse model at 100 mg/kg, po pretreated for 2 hrs followed by aconitine administration measured for 30 mins post-aconitine dose; assay type: ADME, organism-based
# [38] = Oral bioavailability in mouse at 3 mg/kg; assay type: ADME, organism-based; details: in vivo
# [39] = Volume of distribution at steady state in mouse at 1 mg/kg, iv; assay type: ADME, organism-based; details: in vivo, read-out: Vdss
# [40] = target: T2, Cytochrome P450 1A2 (Homo sapiens, UniProt P05177); assay: Inhibition of CYP1A2 (unknown origin); assay type: ADME
# T2 sequence (P05177 whole entry): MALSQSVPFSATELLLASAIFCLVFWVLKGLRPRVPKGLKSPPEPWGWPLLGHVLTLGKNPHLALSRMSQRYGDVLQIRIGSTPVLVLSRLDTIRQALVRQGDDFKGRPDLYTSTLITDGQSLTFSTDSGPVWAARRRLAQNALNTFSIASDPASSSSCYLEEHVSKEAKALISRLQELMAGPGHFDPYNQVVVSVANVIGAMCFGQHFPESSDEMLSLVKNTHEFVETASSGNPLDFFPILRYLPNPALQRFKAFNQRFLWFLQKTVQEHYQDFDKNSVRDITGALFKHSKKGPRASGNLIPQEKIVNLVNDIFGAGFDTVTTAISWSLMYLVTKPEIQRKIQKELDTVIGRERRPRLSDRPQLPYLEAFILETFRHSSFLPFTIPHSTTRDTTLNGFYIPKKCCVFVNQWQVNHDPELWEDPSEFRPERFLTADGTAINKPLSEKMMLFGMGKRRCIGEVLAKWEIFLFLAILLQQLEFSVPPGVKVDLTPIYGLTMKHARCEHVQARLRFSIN
# Chain of Sodium channel protein type 5 subunit alpha (Q14524 whole entry): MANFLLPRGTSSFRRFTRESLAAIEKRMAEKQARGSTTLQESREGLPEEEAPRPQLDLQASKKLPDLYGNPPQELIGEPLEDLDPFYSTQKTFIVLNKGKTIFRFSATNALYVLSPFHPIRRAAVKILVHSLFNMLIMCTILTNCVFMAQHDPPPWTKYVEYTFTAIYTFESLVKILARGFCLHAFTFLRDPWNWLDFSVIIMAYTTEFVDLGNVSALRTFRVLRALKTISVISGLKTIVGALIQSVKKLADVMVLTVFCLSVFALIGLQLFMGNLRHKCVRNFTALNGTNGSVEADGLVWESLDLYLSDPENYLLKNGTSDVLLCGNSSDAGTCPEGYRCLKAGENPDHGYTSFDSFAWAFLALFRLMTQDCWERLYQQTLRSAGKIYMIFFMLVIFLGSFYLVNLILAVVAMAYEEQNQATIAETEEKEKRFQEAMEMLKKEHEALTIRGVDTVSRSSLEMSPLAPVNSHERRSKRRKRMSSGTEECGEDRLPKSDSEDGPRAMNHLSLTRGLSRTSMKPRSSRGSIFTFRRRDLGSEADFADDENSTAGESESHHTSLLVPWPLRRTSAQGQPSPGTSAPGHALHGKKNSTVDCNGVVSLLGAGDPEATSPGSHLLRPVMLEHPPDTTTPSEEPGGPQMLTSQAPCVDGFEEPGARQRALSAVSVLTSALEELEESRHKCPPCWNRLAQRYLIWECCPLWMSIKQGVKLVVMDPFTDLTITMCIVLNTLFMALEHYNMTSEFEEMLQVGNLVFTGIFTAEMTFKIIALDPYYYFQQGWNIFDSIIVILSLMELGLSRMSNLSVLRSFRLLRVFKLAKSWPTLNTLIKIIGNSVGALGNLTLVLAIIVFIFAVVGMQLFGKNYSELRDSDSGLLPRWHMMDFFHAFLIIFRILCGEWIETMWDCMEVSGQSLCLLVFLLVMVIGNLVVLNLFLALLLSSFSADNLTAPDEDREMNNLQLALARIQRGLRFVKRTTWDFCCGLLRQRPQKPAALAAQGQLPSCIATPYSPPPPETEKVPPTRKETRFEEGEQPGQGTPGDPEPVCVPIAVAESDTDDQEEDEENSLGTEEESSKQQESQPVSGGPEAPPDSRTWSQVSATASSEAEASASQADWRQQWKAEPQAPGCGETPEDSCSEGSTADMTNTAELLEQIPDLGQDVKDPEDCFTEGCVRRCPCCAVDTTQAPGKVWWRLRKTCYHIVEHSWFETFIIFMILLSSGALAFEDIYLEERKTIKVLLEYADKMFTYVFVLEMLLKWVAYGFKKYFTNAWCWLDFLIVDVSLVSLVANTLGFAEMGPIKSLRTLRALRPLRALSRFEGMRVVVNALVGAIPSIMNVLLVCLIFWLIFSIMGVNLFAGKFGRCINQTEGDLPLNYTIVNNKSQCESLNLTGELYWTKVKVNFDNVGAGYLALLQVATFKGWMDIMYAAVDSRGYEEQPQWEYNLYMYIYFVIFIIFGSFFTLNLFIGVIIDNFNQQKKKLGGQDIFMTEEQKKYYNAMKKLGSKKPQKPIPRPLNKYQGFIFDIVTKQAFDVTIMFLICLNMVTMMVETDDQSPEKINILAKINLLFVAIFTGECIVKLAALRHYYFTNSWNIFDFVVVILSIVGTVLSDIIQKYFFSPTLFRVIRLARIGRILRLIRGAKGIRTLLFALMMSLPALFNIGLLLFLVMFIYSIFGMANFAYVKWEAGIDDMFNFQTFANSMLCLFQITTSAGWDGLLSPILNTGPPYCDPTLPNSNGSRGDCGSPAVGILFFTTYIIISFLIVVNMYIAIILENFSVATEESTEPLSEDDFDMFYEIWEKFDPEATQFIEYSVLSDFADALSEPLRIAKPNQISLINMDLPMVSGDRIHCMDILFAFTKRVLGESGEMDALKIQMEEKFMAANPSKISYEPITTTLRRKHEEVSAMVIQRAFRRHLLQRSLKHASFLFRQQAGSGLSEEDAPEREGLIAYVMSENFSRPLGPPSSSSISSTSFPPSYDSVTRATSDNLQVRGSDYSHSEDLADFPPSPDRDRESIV
# Chain of Cytochrome P450 2C19 (P33261 whole entry): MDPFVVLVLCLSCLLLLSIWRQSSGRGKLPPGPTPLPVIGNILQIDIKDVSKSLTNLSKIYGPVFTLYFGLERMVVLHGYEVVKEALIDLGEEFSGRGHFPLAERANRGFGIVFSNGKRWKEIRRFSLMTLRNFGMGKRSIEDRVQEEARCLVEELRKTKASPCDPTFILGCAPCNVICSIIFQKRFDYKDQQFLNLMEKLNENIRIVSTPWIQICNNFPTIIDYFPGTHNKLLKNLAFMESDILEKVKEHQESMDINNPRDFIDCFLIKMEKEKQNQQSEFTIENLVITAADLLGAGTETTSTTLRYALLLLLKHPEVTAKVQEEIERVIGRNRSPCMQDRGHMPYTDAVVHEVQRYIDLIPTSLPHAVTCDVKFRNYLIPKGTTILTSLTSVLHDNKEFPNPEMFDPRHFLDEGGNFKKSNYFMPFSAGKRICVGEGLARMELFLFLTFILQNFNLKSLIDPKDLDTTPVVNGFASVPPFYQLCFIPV
# Chain of Cytochrome P450 2C9 (P11712 whole entry): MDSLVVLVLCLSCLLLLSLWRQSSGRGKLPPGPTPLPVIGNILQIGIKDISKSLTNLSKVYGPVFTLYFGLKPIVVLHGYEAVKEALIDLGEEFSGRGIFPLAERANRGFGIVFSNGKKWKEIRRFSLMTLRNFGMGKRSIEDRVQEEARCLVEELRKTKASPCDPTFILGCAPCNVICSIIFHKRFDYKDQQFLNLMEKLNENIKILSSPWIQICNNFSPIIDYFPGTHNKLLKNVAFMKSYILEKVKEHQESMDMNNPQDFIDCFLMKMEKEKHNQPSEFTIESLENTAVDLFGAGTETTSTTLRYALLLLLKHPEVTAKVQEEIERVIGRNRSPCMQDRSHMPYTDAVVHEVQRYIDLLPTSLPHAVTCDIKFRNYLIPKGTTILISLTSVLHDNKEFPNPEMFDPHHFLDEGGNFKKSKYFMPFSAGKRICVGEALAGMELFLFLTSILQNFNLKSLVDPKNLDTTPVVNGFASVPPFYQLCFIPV
smiles,measurement,setting,value
C[C@H]1[C@H](O)CN(C(=O)c2cc(C3CC3)c(OCC34CC5CC(CC(C5)C3)C4)cc2F)[C@@H]1C(=O)O,Ki,[1],0.021 µM
CC1(C)CCN(C(=O)c2cc(C3CC3)c(OCC34CC5CC(CC(C5)C3)C4)cc2F)[C@@H]1C(=O)O,Ki,[1],0.058 µM
C[C@@H]1[C@@H](C(=O)O)[C@H](C(=O)c2cc(C3CC3)c(OCC34CC5CC(CC(C5)C3)C4)cc2F)C[C@@H]1F,CLhep predicted,[2],0.66 L/h/kg
same,IC50,[3],6 µM
same,IC50,[4],0.16 µM
same,AUC,[5]; read-out: AUC,240 nM·h
same,IC50,[6],0.01 µM
same,fold change (FC),[7],1
same,CLhep predicted,[8],3.18 L/h/kg
same,Ki,[1],0.0018 µM
C[C@@H]1[C@@H](C(=O)O)N(C(=O)c2cc(C3CC3)c(OCC34CC5CC(CC(C5)C3)C4)cc2F)C[C@@H]1F,CLhep predicted,[2],0.78 L/h/kg
same,IC50,[3],5.8 µM
same,AUC,[5]; read-out: AUC,160 nM·h
same,IC50,[6],0.01 µM
same,fold change (FC),[7],1
same,CLhep predicted,[8],3.84 L/h/kg
same,Ki,[1],0.0064 µM
N#C[C@@H]1C[C@@H](C(=O)O)N(C(=O)c2cc(C3CC3)c(OCC34CC5CC(CC(C5)C3)C4)cc2F)C1,Ki,[1],0.12 µM
C[C@H]1CCN(C(=O)c2cc(C3CC3)c(OCC34CC5CC(CC(C5)C3)C4)cc2F)[C@@H]1C(=O)O,Ki,[1],0.01 µM
C[C@@H]1C[C@@H](C(=O)O)N(C(=O)c2cc(C3CC3)c(OCC34CC5CC(CC(C5)C3)C4)cc2F)C1,Ki,[1],0.085 µM
O=C(O)[C@@H]1C[C@H](F)CN1C(=O)c1cc(C2CC2)c(OCC23CC4CC(CC(C4)C2)C3)cc1F,Ki,[1],0.56 µM
C[C@@H]1[C@@H](C(=O)O)[C@H](C(=O)c2cc(C3CC3)c(OCC3CCN(Cc4c(Cl)cccc4Cl)CC3)cc2F)C[C@@H]1F,IC50,[9],> 10 µM
same,fraction unbound,[10],0.0001
same,EC50,[11],2.72 µM
same,Activity,[12],35%
same,Activity,[13],81%
same,IC50,[14],0.025 µM
same,CLhep predicted,[2],0.66 L/h/kg
same,Papp A→B,[15],190 nm/s
same,IC50,[16],> 10 µM
same,IC50,[17],> 10 µM
same,Activity,[18],96%
same,half-life,[19],1.2 h
same,efflux ratio,[20],0.92
same,IC50,[3],5.9 µM
same,concentration at 2.5 h,[21],20.8 µM
same,concentration at 2.5 h,[22],1.77 µM
same,fraction unbound,[23],0.0001
same,IC50,[24],> 10 µM
same,Activity,[25],100%
same,solubility kinetic,[26],58 µM
same,CLhep predicted,[27],1.26 L/h/kg
same,IC50,[4],0.099 µM
same,concentration at 2.5 h,[28],7.29 µM
same,efflux ratio,[29],2.8
same,AUC,"[5]; po, 3 mg/kg",9600 nM·h
same,IC50,[30],0.3 µM
same,IC50,[31],0.015 µM
same,IC50,[6],0.013 µM
same,CLhep predicted,[32],0.372 L/h/kg
same,Kp at 2.5 h,[33],~0.12
same,Cmax,[34],1.5 µM
same,concentration at 2.5 h,[35],0.33 µM
same,half-life,[36],3.6 h
same,concentration at 2.5 h,[37],50.9 µM
same,CLhep predicted,[8],3.06 L/h/kg
same,Ki,[1],0.0049 µM
same,F,[38],45%
same,Vd,[39],0.94 L/kg
same,IC50,[40],> 10 µM
O=C(O)[C@@H]1[C@@H](F)CCN1C(=O)c1cc(C2CC2)c(OCC23CC4CC(CC(C4)C2)C3)cc1F,Ki,[1],0.06 µM
O=C(O)[C@@H]1CC(F)(F)CN1C(=O)c1cc(C2CC2)c(OCC23CC4CC(CC(C4)C2)C3)cc1F,Ki,[1],0.035 µM
O=C(c1cc(C2CC2)c(OCC23CC4CC(CC(C4)C2)C3)cc1F)C1CCC[C@H]1C(=O)O (stereo not given in full),CLhep predicted,[2],1.02 L/h/kg
same,IC50,[3],2.6 µM
same,IC50,[4],0.25 µM
same,AUC,[5]; read-out: AUC,530 nM·h
same,IC50,[6],0.012 µM
same,fold change (FC),[7],1.5
same,CLhep predicted,[8],3.66 L/h/kg
same,Ki,[1],0.0086 µM
